The source made the active and inactive calls. No rule for the calls is given here.
Assay: T. brucei MetRS enzyme inhibitors, late-stage follow-up, biochemical, radioactivity, assay provider, round 2 (AID 1053198)
Conditions: purified enzyme, radiolabel aminoacylation, 120 min, stronger effect = higher value

| SMILES | inhibition (at 10 µM) | inhibition (inhibition, at 1 µM) [%] |
| --- | --- | --- |
| CCN(CC)C(=O)C(=O)c1cn(CC(=O)Nc2cc(C(F)(F)F)cc(C(F)(F)F)c2)c2ccccc12 | 100% | 90.3 |
| CCN(CC)C(=O)C(=O)c1cn(CC(=O)Nc2cc(Oc3ccccc3)cc(C(F)(F)F)c2)c2ccccc12 | 98.3% | 95.6 |
| CCN(CC)C(=O)C(=O)c1cn(CC(=O)Nc2cc(Br)cc(C(F)(F)F)c2)c2ccccc12 | 101% | 95.8 |
| CCN(CC)C(=O)C(=O)c1cn(CC(=O)Nc2cc(Cl)cc(C(F)(F)F)c2)c2ccccc12 | 100% | 95.2 |
| CCN(CC)C(=O)C(=O)c1cn(CC(=O)Nc2cccc(C(F)(F)F)c2)c2cc(OC)ccc12 | 4.41% (inactive) | -4.41 |
| CCN(CC)C(=O)C(=O)c1cn(CC(=O)Nc2cc(C)cc(C(F)(F)F)c2)c2ccccc12 | 100% | 96.2 |

From PubChem BioAssay AID1053198 (The Scripps Research Institute Molecular Screening Center, 2014)
